Consider six compounds from patent publication US20220010258A1, “DEVICE THAT CAN SERVE AS A HEMATO-ENCEPHALITIC BARRIER MODEL” (priority 2017, published 2022).

The test system of one data set is P-glycoprotein. Kind of data set: Functionality of the P-glycoprotein: passage of rhodamine 123 with or without Zosuquidar, primary murine devices. In kind it is in vitro ADME, mouse. How it is done: This functionality test is carried out with rhodamine 123, because it is known that this molecule as a substrate for the P-glycoprotein is expelled by the P-glycoprotein into the luminal compartment, which thus limits its passage through the device. The culture media are replenished: 1 mL in the abluminal compartment and 250 μL in the luminal compartment either containing or not containing the Zosuquidar inhibitor of P-glycoprotein P at 5 μM (Dantzig et al. 1996). The devices are incubated for 2 hrs in the incubator. Then, 250 μL of medium containing 2 μM rhodamine 123 with or without 5 μM Zosuquidar are added into the luminal compartment and incubated for 1 hr in the incubator. […] The reading of the fluorescence intensity is done on the same apparatus as for the permeability test (described above). The λex of the rhodamine is 500 nm and the λem is 524 nm.
Indeed it is known that rhodamine 123 as a substrate for glycoprotein P is expelled by the glycoprotein P into the luminal compartment, which limits the passage thereof through the device. Zosuquidar is an inhibitor of P-glycoprotein, therefore its use should limit the efflux of rhodamine 123 into the luminal compartment.
As in Example 4, the passage of rhodamine 123 in the presence or absence of Zosuquidar was studied.

The next data set relates to P-gp glycoprotein. The experiment in a line: Functionality of P-glycoprotein in the commercially available device (Rhodamine 123 with or without Zosuquidar). The settings on record: commercially available model. In kind it is in vitro ADME, rat. On the procedure: Here again, the functionality of the commercially available model was evaluated by studying the passage of Rhodamine 123 in the presence or absence of the specific inhibitor of the P-gp glycoprotein, Zosuquidar.

A further data set relates to P-gp efflux pump. The experiment in a line: Functionality of P-glycoprotein on murine devices with immortalised cell lines.
The conditions of data set [1]: known ability; cited from earlier work.

For rhodamine 123, the “passage of Rhodamine123 to the luminal side after addition into the abluminal compartment” value with P-glycoprotein (24- and 96-well format devices) is reported as “comparable to cell-free HEBs”. Besides, in the data set with P-glycoprotein (24- and 96-well format devices, added luminal), the “passage of Rhodamine123 to the abluminal side” value is on record as “passes very little on to the abluminal side”. Further, in the data set on P-glycoprotein (device WT, 1 hr incubation), the “decrease of the passage of rhodamine 123 to the abluminal compartment as compared to the device without cells” value is given as 72.6%. Also, the “efflux of Rhodamine123” value in the data set on P-gp glycoprotein (regardless of the side where it is deposited) stood at 97%. In addition, the “limitation of the passage of Rhodamine 123 on the abluminal side” value with P-gp efflux pump (12-, 24-, and 96 well plate formats) is “more than 60%”.

Regarding `O=C1CN=C(c2ccccn2)c2cc(Br)ccc2N1` [BROMO, Bromazepam], the “Passage through the HEB” value in data set [1] was “+”.

For the compound `NCCc1ccc(O)c(O)c1` [DA, Dopamine], in data set [1], the “Passage through the HEB” value was “−”.

On to `Clc1ccc(C(c2ccccc2Cl)C(Cl)Cl)cc1` (centres unmarked) [MITO, Mitotane], for which the “Passage through the HEB” value in data set [1] is “−”.

In the case of `O[C@@H](COc1cccc2ncccc12)CN1CCN([C@@H]2c3ccccc3[C@@H]3[C@H](c4ccccc42)C3(F)F)CC1` [Zosuquidar], the “inhibition of the efflux (of rhodamine 123) by the specific P-glycoprotein inhibitor” value in the data set on P-glycoprotein (5 μM Zosuquidar, device WT) came out at 57.3%. Also, the “effect on P-gp functionality” value in the data set on P-glycoprotein (24- and 96-well format devices) is given as “inhibited”. The “effect of Zosuquidar on Rhodamine 123 passage” value with P-gp glycoprotein is recorded as “no effect”. Further, the “Passage through the HEB” value in data set [1] is listed as “−”. For the same compound, the “effect of the specific Glycoprotein P inhibitor” value in the data set with P-gp efflux pump (all the formats) is reported as “does not show any effect”.

Take `OC[C@H]1O[C@@](CO)(O[C@H]2O[C@H](CO)[C@@H](O)[C@H](O)[C@H]2O)[C@@H](O)[C@@H]1O` [SUC, Sucrose]: the “Passage through the HEB” value in data set [1] is recorded as “+”.
